“And” between values parts separate entries of the source, which are not always exact repeats. Equal values may be shown once. ± gives the expanded uncertainty stated by the source.
Details: Fluid (supercritical or subcritical phases), Buoyancy - hydrostatic balance with magnetic suspension - two sinkers

CCC [propane]
Details | mass density
380 K, 4703.9 kPa | 148.078 ± 0.14 kg/m3 [middle of 5 runs]
380 K, 4705.6 kPa | 148.36 ± 0.034 kg/m3 [middle of 4 runs]
380 K, 4705.7 kPa | 148.363 ± 0.034 kg/m3
380 K, 4755.7 kPa | 155.492 ± 0.2 kg/m3 [middle of 5 runs]
380 K, 4879.5 kPa | 178.216 ± 0.068 kg/m3 and 178.213 ± 0.068 kg/m3
380 K, 4879.6 kPa | 178.236 ± 0.068 kg/m3 and 178.204 ± 0.068 kg/m3 and 178.214 ± 0.068 kg/m3
380 K, 4957.6 kPa | 197.127 ± 0.063 kg/m3
380 K, 4957.7 kPa | 197.117 ± 0.064 kg/m3 and 197.11 ± 0.064 kg/m3
380 K, 4957.8 kPa | 197.115 ± 0.064 kg/m3 [middle of 4 runs]
380 K, 4957.9 kPa | 197.119 ± 0.064 kg/m3
380 K, 5001.3 kPa | 208.689 ± 0.03 kg/m3
380 K, 5001.5 kPa | 208.739 ± 0.03 kg/m3
380 K, 5002.2 kPa | 208.955 ± 0.03 kg/m3 and 208.946 ± 0.03 kg/m3 and 208.942 ± 0.03 kg/m3
380 K, 5002.3 kPa | 208.948 ± 0.03 kg/m3 and 208.946 ± 0.03 kg/m3
380 K, 5041.6 kPa | 219.674 ± 0.038 kg/m3 and 219.68 ± 0.038 kg/m3 and 219.675 ± 0.038 kg/m3
380 K, 5041.7 kPa | 219.681 ± 0.038 kg/m3 [middle of 4 runs]
380 K, 5067.9 kPa | 226.412 ± 0.032 kg/m3 and 226.42 ± 0.032 kg/m3
380 K, 5068 kPa | 226.427 ± 0.032 kg/m3
380 K, 5068.1 kPa | 226.418 ± 0.032 kg/m3
380 K, 5141.5 kPa | 243.559 ± 0.036 kg/m3 and 243.562 ± 0.036 kg/m3 and 243.564 ± 0.036 kg/m3
380 K, 5141.6 kPa | 243.563 ± 0.036 kg/m3 [middle of 5 runs]
380 K, 5268.6 kPa | 264.989 ± 0.041 kg/m3 and 264.991 ± 0.041 kg/m3
380 K, 5268.8 kPa | 264.985 ± 0.041 kg/m3 and 264.995 ± 0.041 kg/m3
380 K, 5408.3 kPa | 280.991 ± 0.074 kg/m3 [middle of 4 runs]
380 K, 5408.4 kPa | 280.991 ± 0.074 kg/m3 and 280.992 ± 0.074 kg/m3 and 280.986 ± 0.074 kg/m3
380 K, 6684.1 kPa | 336.97 ± 0.056 kg/m3 and 336.962 ± 0.056 kg/m3
380 K, 6684.2 kPa | 336.972 ± 0.056 kg/m3
380 K, 6684.3 kPa | 336.974 ± 0.056 kg/m3 and 336.97 ± 0.056 kg/m3
380 K, 6684.4 kPa | 336.974 ± 0.056 kg/m3
380 K, 7975.3 kPa | 360.582 ± 0.047 kg/m3
380 K, 7975.4 kPa | 360.58 ± 0.047 kg/m3
380 K, 7975.5 kPa | 360.582 ± 0.047 kg/m3 [middle of 6 runs]
380 K, 7975.6 kPa | 360.58 ± 0.047 kg/m3 and 360.581 ± 0.047 kg/m3
380 K, 7975.7 kPa | 360.586 ± 0.047 kg/m3
380 K, 7975.8 kPa | 360.584 ± 0.047 kg/m3 and 360.583 ± 0.047 kg/m3
380 K, 10919 kPa | 391.154 ± 0.05 kg/m3 [middle of 4 runs]
380 K, 10920 kPa | 391.156 ± 0.05 kg/m3 and 391.155 ± 0.05 kg/m3
380 K, 11880 kPa | 398.187 ± 0.049 kg/m3 and 398.185 ± 0.049 kg/m3
380 K, 11881 kPa | 398.189 ± 0.049 kg/m3 and 398.186 ± 0.049 kg/m3
380 K, 15945 kPa | 420.987 ± 0.052 kg/m3 and 420.99 ± 0.052 kg/m3
380 K, 15946 kPa | 420.986 ± 0.052 kg/m3
380 K, 19820 kPa | 436.807 ± 0.053 kg/m3 and 436.806 ± 0.053 kg/m3
380 K, 19821 kPa | 436.811 ± 0.053 kg/m3 and 436.808 ± 0.053 kg/m3 and 436.81 ± 0.053 kg/m3
380 K, 23098 kPa | 447.702 ± 0.055 kg/m3 [middle of 5 runs]
380 K, 23099 kPa | 447.703 ± 0.055 kg/m3 and 447.702 ± 0.055 kg/m3
380 K, 23697 kPa | 449.488 ± 0.055 kg/m3 and 449.487 ± 0.055 kg/m3 and 449.489 ± 0.055 kg/m3
380 K, 29645 kPa | 465.242 ± 0.057 kg/m3 and 465.241 ± 0.057 kg/m3
380 K, 29646 kPa | 465.242 ± 0.057 kg/m3 and 465.241 ± 0.057 kg/m3
380 K, 34344 kPa | 475.596 ± 0.058 kg/m3 [middle of 4 runs]
380 K, 34345 kPa | 475.597 ± 0.058 kg/m3
380.01 K, 954.8 kPa | 14.3809 ± 0.0041 kg/m3
380.01 K, 954.81 kPa | 14.381 ± 0.0041 kg/m3
380.01 K, 3513.7 kPa | 73.3411 ± 0.055 kg/m3
380.01 K, 5268.9 kPa | 264.989 ± 0.041 kg/m3
380.01 K, 6684.6 kPa | 336.973 ± 0.056 kg/m3
380.01 K, 6684.7 kPa | 336.971 ± 0.056 kg/m3
400 K, 336.43 kPa | 4.5554 ± 0.0029 kg/m3 and 4.5553 ± 0.0029 kg/m3
400 K, 599.95 kPa | 8.2683 ± 0.0033 kg/m3
400 K, 599.96 kPa | 8.2685 ± 0.0033 kg/m3 and 8.2684 ± 0.0033 kg/m3
400 K, 956.18 kPa | 13.5094 ± 0.0039 kg/m3
400 K, 957.16 kPa | 13.5243 ± 0.0039 kg/m3
400 K, 957.89 kPa | 13.5351 ± 0.0039 kg/m3
400 K, 959.04 kPa | 13.5529 ± 0.0039 kg/m3
400 K, 962.98 kPa | 13.6116 ± 0.004 kg/m3
400 K, 1542.1 kPa | 22.7724 ± 0.024 kg/m3
400 K, 1542.2 kPa | 22.7738 ± 0.024 kg/m3 and 22.7745 ± 0.024 kg/m3
400 K, 1542.3 kPa | 22.7764 ± 0.024 kg/m3
400 K, 1542.4 kPa | 22.7771 ± 0.024 kg/m3
400 K, 2380.3 kPa | 37.7472 ± 0.028 kg/m3 and 37.7486 ± 0.028 kg/m3 and 37.7481 ± 0.028 kg/m3
400 K, 2380.5 kPa | 37.7508 ± 0.028 kg/m3 and 37.7503 ± 0.028 kg/m3
400 K, 3308.6 kPa | 57.6872 ± 0.034 kg/m3 [middle of 5 runs]
400 K, 3901.8 kPa | 73.2165 ± 0.043 kg/m3 [middle of 4 runs]
400 K, 3901.9 kPa | 73.2188 ± 0.043 kg/m3
400 K, 3902 kPa | 73.2191 ± 0.043 kg/m3
400 K, 4691.9 kPa | 99.4254 ± 0.017 kg/m3 and 99.4238 ± 0.017 kg/m3 and 99.4251 ± 0.017 kg/m3
400 K, 4692 kPa | 99.4292 ± 0.017 kg/m3 and 99.4262 ± 0.017 kg/m3
400 K, 5668.4 kPa | 147.912 ± 0.11 kg/m3
400 K, 5668.5 kPa | 147.917 ± 0.11 kg/m3 [middle of 6 runs]
400 K, 5673.1 kPa | 148.232 ± 0.03 kg/m3
400 K, 5673.2 kPa | 148.239 ± 0.03 kg/m3 and 148.234 ± 0.03 kg/m3 and 148.236 ± 0.03 kg/m3
400 K, 5673.3 kPa | 148.236 ± 0.03 kg/m3
400 K, 5676.5 kPa | 148.439 ± 0.11 kg/m3 and 148.438 ± 0.11 kg/m3
400 K, 5676.6 kPa | 148.445 ± 0.11 kg/m3 and 148.444 ± 0.11 kg/m3 and 148.437 ± 0.11 kg/m3
400 K, 5676.7 kPa | 148.447 ± 0.11 kg/m3 [middle of 8 runs]
400 K, 5676.8 kPa | 148.451 ± 0.11 kg/m3 [middle of 9 runs]
400 K, 5676.9 kPa | 148.458 ± 0.11 kg/m3 [middle of 6 runs]
400 K, 5677 kPa | 148.462 ± 0.11 kg/m3 [middle of 5 runs]
400 K, 5677.1 kPa | 148.464 ± 0.11 kg/m3 and 148.466 ± 0.11 kg/m3
400 K, 5677.2 kPa | 148.477 ± 0.11 kg/m3 and 148.472 ± 0.11 kg/m3
400 K, 5677.4 kPa | 148.487 ± 0.11 kg/m3 and 148.49 ± 0.11 kg/m3
400 K, 5677.9 kPa | 148.509 ± 0.11 kg/m3
400 K, 5678 kPa | 148.518 ± 0.11 kg/m3 and 148.516 ± 0.11 kg/m3 and 148.517 ± 0.11 kg/m3
400 K, 5678.1 kPa | 148.519 ± 0.11 kg/m3 and 148.526 ± 0.11 kg/m3 and 148.518 ± 0.11 kg/m3
400 K, 5678.2 kPa | 148.528 ± 0.11 kg/m3 [middle of 13 runs]
400 K, 5678.3 kPa | 148.528 ± 0.11 kg/m3 and 148.529 ± 0.11 kg/m3
400 K, 5781.6 kPa | 155.313 ± 0.079 kg/m3 and 155.311 ± 0.079 kg/m3
400 K, 5781.7 kPa | 155.314 ± 0.079 kg/m3 and 155.311 ± 0.079 kg/m3
400 K, 6338.3 kPa | 196.876 ± 0.11 kg/m3 and 196.877 ± 0.11 kg/m3
400 K, 6338.4 kPa | 196.877 ± 0.11 kg/m3 [middle of 5 runs]
400 K, 6338.5 kPa | 196.877 ± 0.11 kg/m3
400 K, 6630.2 kPa | 219.389 ± 0.089 kg/m3
400 K, 6630.3 kPa | 219.386 ± 0.089 kg/m3 and 219.389 ± 0.089 kg/m3
400 K, 6630.4 kPa | 219.389 ± 0.089 kg/m3 [middle of 4 runs]
400 K, 6978.6 kPa | 243.19 ± 0.06 kg/m3 and 243.192 ± 0.06 kg/m3
400 K, 6978.7 kPa | 243.193 ± 0.06 kg/m3 and 243.189 ± 0.06 kg/m3 and 243.196 ± 0.06 kg/m3
400 K, 6978.8 kPa | 243.19 ± 0.06 kg/m3
400 K, 6978.9 kPa | 243.193 ± 0.06 kg/m3
400 K, 7736.9 kPa | 280.444 ± 0.051 kg/m3 and 280.447 ± 0.051 kg/m3
400 K, 7737 kPa | 280.444 ± 0.051 kg/m3
400 K, 7737.1 kPa | 280.449 ± 0.051 kg/m3 and 280.444 ± 0.051 kg/m3
400 K, 7737.2 kPa | 280.444 ± 0.051 kg/m3
400 K, 7737.3 kPa | 280.449 ± 0.051 kg/m3 and 280.45 ± 0.051 kg/m3
400 K, 7912.9 kPa | 286.854 ± 0.051 kg/m3
400 K, 7913.2 kPa | 286.868 ± 0.051 kg/m3 and 286.866 ± 0.051 kg/m3 and 286.857 ± 0.051 kg/m3
400 K, 7913.4 kPa | 286.864 ± 0.051 kg/m3
400 K, 10112 kPa | 336.235 ± 0.048 kg/m3 [middle of 5 runs]

From the NIST ThermoML archive (doi:10.1021/je900124n)
